Reference: a melting point compilation (Tetko et al.; mined from patent text by program, amines drawn as free bases though some values may be those of a salt)

Row | SMILES | melting point
1 | O=C(O)c1cccc(-c2nc(-c3ccc(F)cc3F)cs2)c1 | 255 to 256 °C
2 | O=C(Nc1ccc2ccc(Cl)nc2n1)c1c(F)cccc1F | 242 °C
3 | Cc1ccc(S(=O)(=O)CS(C)(=O)=O)cc1 | 164 to 165 °C
4 | CC[C@H]1CNCC[C@H]1CCc1c[nH]c2ccccc12 | 150 °C
5 | O=C1CN(c2ccc(F)cc2)CCN1 | 118 to 120 °C
6 | Cc1sc(N)c(C(=O)c2ccc(Cl)cc2)c1CN1CCN(c2cccc(F)c2)CC1 | 140 to 141 °C
7 | CC(C)CC(=O)Nc1ccc(-c2ccncc2)cc1 | 166 to 176 °C
8 | CCCOc1cc(-c2cc(C=CC(=O)O)ccc2O)cc2c1C(C)(C)CCC2(C)C | 114 to 116 °C
9 | CCOC(=O)Nc1cc(-n2cc(C(=O)OCC)c(=O)c3c(OCc4ccccc4)c(F)c(F)cc32)c(F)cc1F | 130 to 134 °C
10 | CN1CC(CCN2CCN(c3ccccc3)CC2)c2nc3ccccc3n2C1=O (configuration not stated) | 144 to 146 °C
11 | Nc1cccc(Cn2c(-c3ccc(Nc4cncnc4)cc3)ccc2-c2ccccc2Cl)n1 | 88 to 90 °C
12 | CCOC(=O)c1ccc([N+](=O)[O-])cc1CBr | 65 to 66 °C
13 | OC(c1ccccc1F)c1cc(C(F)(F)F)nc2c(C(F)(F)F)cccc12 (configuration not stated) | 120 to 121 °C
14 | Nc1ccc(C2Oc3cc4c(cc3O2)CC2COC(=O)N2N=C4)cc1 (configuration not stated) | 173 to 175 °C
15 | O=C(O)CCC=C(Cl)Cl | 117 to 118 °C
16 | O=C(Nc1ccccc1)Nc1cccc(-c2ccc(C(=O)N3CCN4CCC3CC4)o2)c1 | 125 to 130 °C
17 | Cc1cccc(C)c1CNc1cc(C(=O)O)cc2c1nc(C)n2C | 315 to 318 °C
18 | OCC#Cc1ccc(Br)cn1 | 121 to 122 °C
19 | CC(C)(C)OC(=O)CC1=CCCCC1n1nc(-c2c(-c3ccccc3)nn3ccccc23)ccc1=O (configuration not stated) | 146 to 147 °C
20 | O=C1Nc2ccccc2SC1c1ccccc1Cl (configuration not stated) | 200 °C
21 | CCOC(=O)c1cn2c3c(c(C(C#N)C(=O)OCC)c(F)cc3c1=O)CCN2C (configuration not stated) | 153 to 154 °C
22 | COC(=O)c1c(OC)ccc2ccccc12 | 175 to 176 °C
23 | O=C(NCCCSc1ccncc1)c1ccccc1 | 120 to 121 °C
24 | O=C(O)C1=Cc2cc(F)c(F)cc2NC1C(F)(F)F (configuration not stated) | 187 to 189 °C
25 | Cc1ccccc1Nc1nc(NCc2ccccc2)nc2ccccc12 | 127 to 130 °C
26 | Cc1cc(O)cc2oc(=O)ccc12 | 256 °C

Row | SMILES | melting point
27 | COc1ccc2c(c1)CCC1C2CCC2(C)C1CCC2N(C=O)CCOCCO (configuration not stated) | 134 to 135 °C
28 | Cc1nc2ccc3nc(O)c(O)nc3c2nc1C | > 300 °C
29 | CC(=O)Nc1ccc(C=C(C#N)C(=O)OCC[Si](C)(C)C)cc1 | 136 °C
30 | CC(C)(C)OC(=O)N1CCn2c(Cl)c(-c3cccc(C#N)c3)c(C(=O)O)c2C1 | 208 to 210 °C
31 | O=C(O)c1ccc2c(c1)C(=O)C1(CC1)O2 | 215 to 228 °C
32 | Cc1c(-c2ccc(OCC3CC3)cc2)nc2n(Cc3c(F)cccc3F)cc(Br)c(=O)n12 | 230 to 231 °C
33 | N#Cc1ccc(N(CCCCOc2ccc(O)cc2)n2cnnc2)cc1 | 156 to 159 °C
34 | O=C(O)CC1CCN(c2ccc3c(NC(=O)CC4CCCCC4)c(Cl)ccc3n2)CC1 | 242 to 244 °C
35 | NC(=O)c1cccc(-c2nc(-c3ccccc3)c(-c3nc4ccccc4c(=O)n3-c3ccccc3Cl)s2)c1 | 212 to 214 °C
36 | O=C(O)c1cc(-n2cccc2)cc(C(F)(F)F)c1 | 191 to 192 °C
37 | COc1ccc(S(=O)(=O)N(Cc2ccccc2)c2c(C(=O)NO)cnc3c2c(C)nn3C)cc1 | 184 to 186 °C
38 | CC(C)C(=O)C(C)(C)C1(O)C(=O)N(Cc2ccc(Cl)cc2)c2ccccc21 (configuration not stated) | 105 to 107 °C
39 | COC(c1cc(-c2ccc(F)cc2)c(-c2ccc(F)cc2)n1C)(C(F)(F)F)C(F)(F)F | 108 to 110 °C
40 | CCNC(=O)OC1=C(c2ccccc2)Oc2ccccc2-n2cccc21 | 74 to 75 °C
41 | Cn1c([N+](=O)[O-])cnc1CS(=O)(=O)c1ccccn1 | 187 °C
42 | CCCCCCCC(=O)Nc1ccc(OCC(O)CNC(C)C)c(C#N)c1 (configuration not stated) | 116 to 118 °C
43 | CC(=NNC(=O)c1ccncc1)c1ccc2nnn(Cc3ccc4ncccc4c3)c2n1 | 239 to 241 °C
44 | CCOc1ccc(C(=O)c2c(-c3ccc(OC)cc3)sc3cc(OC)ccc23)cc1 | 124 to 125 °C
45 | N[C@@H](Cc1ccc(C(F)(F)F)cc1)[C@H](O)c1ccoc1 (racemic) | 91 to 92 °C
46 | Clc1ccc(C2NN=C(c3cccnc3)S2)cc1 (configuration not stated) | 108 to 110 °C
47 | CCCc1c(OCC#CCCCC(=O)NCCCCc2cccnc2)ccc(C(C)=O)c1O | 77 to 80 °C
48 | CC1Cc2cccc(S(N)(=O)=O)c2O1 (configuration not stated) | 174 to 177 °C
49 | CCS(=O)(=O)N[C@H](C(=O)NCc1ccc(O)c(OC)c1)C(C)C | 49 to 50 °C
50 | CCCCCCCCCCCC(=O)OC[C@H]1OCC(=NOCc2ccccc2)[C@@H](O)[C@@H]1O | 45 to 50 °C
51 | COc1ccc(CCNC2CCCc3c2ccc(=O)n3C)cc1 (configuration not stated) | 97 to 99 °C
52 | COc1cc2c(cc1OCc1ccccc1)C(c1ccccc1)NCC2 (configuration not stated) | 123 to 125 °C

Row | SMILES | melting point
53 | CCC(CC)n1nc(-c2ccc(OC)cc2OC)c2cccc(C(F)(F)F)c21 | 115 to 116 °C
54 | CC(C)c1nc2c(N)nc(-c3ccncc3)nc2[nH]1 | 269 to 272 °C
55 | Cc1nc(-c2ccccc2F)n(O)c1-c1cccnc1 | 65 to 75 °C
56 | O=C(Cn1nc(-c2ccccc2O)nc1-c1ccccc1O)NCCO | 208 to 211 °C
57 | CCCC12COC(c3ccc(Cl)cc3)(CC1=O)OC2 | 96 °C
58 | COC(=O)c1cccc(C(=O)c2cn(CC(=O)N(C)CCc3ccccc3)c3ccc(OCc4ccccc4)cc23)c1 | 224 to 230 °C
59 | O=C(Nc1ccc(C(F)(F)F)cc1)NC1CCN(C(=O)Cc2c[nH]cn2)CC1 | 121 to 124 °C
60 | Cc1ccc(Oc2ccccc2-n2cc(C(=O)O)nn2)c(O)c1 | 168 to 169 °C
61 | COc1cc(C(=O)O)c(OC)c2c1C(C)(C)CCC2(C)C | 187 °C
62 | N#Cc1ccc(C(F)(F)F)cc1Sc1ccccc1N | 102 to 104 °C
63 | CCOC(=O)C(=O)c1csc(NC(c2ccccc2F)c2ccccc2F)n1 | 122 to 124 °C
64 | CSc1ccc2c(c1)C=C(C(=O)O)C(C(F)(F)F)O2 (configuration not stated) | 166 to 168 °C
65 | NNC(=O)c1ccc2c(c1)C(=C(Cl)Cl)OC(C(Cl)(Cl)Cl)O2 (configuration not stated) | 182 to 183 °C
66 | O=C(O)c1cc2cc(F)c(F)cc2o1 | 270 °C
67 | COc1cc2c(cc1Br)-c1c(-c3cccs3)c3c(n1CC2)C(=O)N(C(C)(C)C)CCC3 | 232 to 233 °C
68 | CCOC(=O)c1c(COc2nccn2C)nc2cc(OC)c(OC)cc2c1-c1ccc(OC)c(OC)c1 | 151 to 152 °C
69 | CC(C)C(=O)N[C@@H](CS)C(=O)O | 103 to 104 °C
70 | COC(=O)c1ccc(CCl)nc1C1=NC(C)(C(C)C)C(=O)N1 (configuration not stated) | 127 to 129 °C
71 | CCOC(=O)c1sc(Nc2ccccc2)c2c1CCc1cn[nH]c1-2 | 202 to 203 °C
72 | O=P(O)(O)C1=CCCCC1 | 128 °C
73 | CC(SSc1ccccc1C(=O)Nc1ccc(S(N)(=O)=O)cc1)C(=O)NCC(=O)O (configuration not stated) | 254 to 256 °C
74 | O=CNC1=CCc2ccccc21 | 87.5 to 88.5 °C
75 | CC(=O)NCC1OC(n2cc(C=CBr)c(=O)[nH]c2=O)CC1Cl (configuration not stated) | 163 to 165 °C
76 | Cc1nc(CS(C)=O)nc(OC(=O)N(C)C)c1C(C)C (configuration not stated) | 80 °C
77 | CC1(C2CC2)NC(=O)Nc2ccc(-c3cccc(Cl)c3)cc21 (configuration not stated) | 125 to 127 °C
78 | CC(C)NC(C)Cc1ccc(O)cn1 (configuration not stated) | 135 to 138 °C

Row | SMILES | melting point
79 | Nc1c(Cl)ccc(Br)c1F | 61 to 62 °C
80 | CCOC(=O)Cc1ccc(NC(=O)C(COC2CCCCO2)NS(=O)(=O)c2ccc(Cl)c([N+](=O)[O-])c2)cc1 (racemic) | 108 to 111 °C
81 | C[C@@H](NC(=O)Nc1ccc(C(C)(C)C)cc1)c1ccc(NS(C)(=O)=O)c(C#C[Si](C)(C)C)c1 | 118 to 120 °C
82 | O=c1[nH]c2cc(F)ccc2n(C(c2ccccc2)c2ccccc2)c1=O | 144 °C
83 | CCC(CC)n1cc(Cl)nc(N2CCc3cc(OC)cc(C)c32)c1=O | 164 to 165 °C
84 | COC(=O)c1cccc(-c2cn(C)cc(-n3cccn3)c2=O)c1 | 144 °C
85 | CCc1c(C#N)c(-c2ccc(C#N)cc2)c(C)n1Cc1cnc(Cl)c(COC(=O)CCC(=O)O)c1 | 187 to 188 °C
86 | CN1C(=S)N(c2cc(Cl)cc(Cl)c2)C(O)C1O (configuration not stated) | 143 °C
87 | O=Cc1c(Cl)ncnc1Cl | 65 to 66 °C
88 | COC(=O)CCC#Cc1ccc(C(=C2CC(C)(C)CC(C)(C)C2)c2ccc(O)cc2)cc1 | 159 to 160 °C
89 | O=C(OCC(O)CO)c1cc(F)ccc1Nc1ccnc2cc(C(F)(F)F)ccc12 (configuration not stated) | 167 to 168 °C
90 | Cn1nc(-c2ccc(F)cc2)c(-c2ccncc2)c1NC(=O)Cc1ccc(O)cc1 | 127 to 129 °C
91 | CN(C)S(=O)(=O)Oc1cccc2c1S(=O)(=O)N=C2C1=C(O)C(C(C)(C)C)N(Cc2ccc(F)cc2)C1=O (configuration not stated) | 116 to 126 °C
92 | Cc1cc2oc(=O)c3c(c2cc1[N+](=O)[O-])CCNC3 | 197 to 199 °C
93 | O=C(O)CCCNS(=O)(=O)c1ccc(NC(=O)Nc2ccc(C(F)(F)F)cc2)cc1 | 172 to 175 °C
94 | COc1cccc2c(=O)c(O)coc12 | 180 to 183 °C
95 | CC(C)(C)c1ccc(C=NOCCOc2ccc(C(=O)O)c(OCc3ccc(C(F)(F)F)cc3)c2)cc1 | 164 to 165 °C
96 | CCC(CC)/C(N)=C(\C)C#N | 150 °C
97 | CCCOC(=O)CCc1cc(Cl)ccc1C(=O)CCCNC(C)=O | 60 to 62 °C
98 | C#CCSc1nn(C(=O)NS(=O)(=O)c2c(C)csc2C(=O)OCC)c(=O)n1C | 175 °C
99 | O=C(CCc1ccccc1)Nc1cc(-c2ccccc2)[nH]n1 | 168 to 170 °C
100 | CCOC(=O)c1cn2c(nc1=O)CCCCC2 | 156 to 157 °C
101 | C#CCn1c(Sc2ccccc2)c(CC)c(=O)[nH]c1=O | 132 °C
102 | CC(C)(NC(=O)c1cc2c(n(CC3CCCCC3)c1=O)CCCCCC2)C(=O)O | 177 to 180 °C
